Experimental data from ChEMBL document CHEMBL1122107, “Structure-antitumor activity relationships of 9-anilinoacridines using pattern recognition” (1982).

These compounds were tested on L1210 (assay: Tumor cell selectivity determined as maximal percent increase in life span (ILSmax) at LD10 dosage level in L1210 cells).
Format: functional, Mus musculus
With `COc1cc(NS(C)(=O)=O)ccc1Nc1c2ccccc2nc2cc(Cl)ccc12` the ILSmax was 99%. In the case of `CCCC(=O)N(c1ccc(Nc2c3ccccc3nc3cc(N)ccc23)cc1)S(C)(=O)=O`, the ILSmax is reported as 55%. `CC(=O)Nc1ccc2c(=Nc3ccc(CCC(=O)O)cc3)c3ccccc3[nH]c2c1` showed an ILSmax of 25%. For `CS(=O)(=O)Nc1ccc(Nc2c3ccccc3nc3ccccc23)c(OCCO)c1`, the ILSmax was 67%. With `NCc1ccc(Nc2c3ccccc3nc3ccccc23)cc1` the ILSmax was 25%. With `CCc1ccc2c(Nc3ccc(NS(C)(=O)=O)cc3OC)c3ccccc3nc2c1` the ILSmax was 123%. `COc1ccc2nc3cc(N)ccc3c(Nc3ccc(NS(C)(=O)=O)cc3)c2c1` gave an ILSmax of 25%. `NCCCCCS(=O)(=O)Nc1ccc(Nc2c3ccccc3nc3ccccc23)cc1` was tested, and the ILSmax was 25%. Compound `CCS(=O)(=O)Nc1ccc(Nc2c3ccccc3nc3c(C)cccc23)c(OC)c1` has an ILSmax of 76%. `Cc1ccc2c(Nc3ccc(NS(C)(=O)=O)cc3)c3ccc(N)cc3nc2c1C` gave an ILSmax of 110%. For `CC(=O)Nc1ccc2c(Nc3ccc(NS(C)(=O)=O)cc3)c3cccc(C)c3nc2c1C`, the ILSmax was 60%. `COc1cc(NS(C)(=O)=O)ccc1Nc1c2cccc(C)c2nc2c(C)c(C)ccc12` showed an ILSmax of 120%. With `CS(=O)(=O)Nc1ccc(Nc2c3ccccc3nc3cc(Cl)c(N)cc23)cc1` the ILSmax was 140%. For `CC(=O)c1ccc(N=c2c3ccccc3[nH]c3cc(N)ccc23)cc1`, the ILSmax was 52%. `CC(=O)N(C)c1ccc(Nc2c3ccccc3nc3ccccc23)cc1` was tested, and the ILSmax was 50%. For `CCCCCCS(=O)(=O)Nc1ccc(Nc2c3ccccc3nc3cc([N+](=O)[O-])ccc23)c(OC)c1`, the ILSmax was 74%. `CC(=O)Nc1ccc2c(Nc3ccc(N(C(=O)C(C)C)S(C)(=O)=O)cc3)c3ccccc3nc2c1` showed an ILSmax of 140%. `NCCCCc1ccc(Nc2c3ccccc3nc3cc([N+](=O)[O-])ccc23)cc1` was tested, and the ILSmax was 25%. `CN(C)C(=O)CCS(=O)(=O)Nc1ccc(Nc2c3ccccc3nc3ccccc23)cc1` showed an ILSmax of 63%. `COc1cccc2c(Nc3ccc(NS(C)(=O)=O)cc3)c3ccc(I)cc3nc12` gave an ILSmax of 80%. With `N=C(N)NCCCCS(=O)(=O)Nc1ccc(Nc2c3ccccc3nc3ccccc23)cc1` the ILSmax was 25%. For `CC(=O)NCCS(=O)(=O)Nc1ccc(Nc2c3ccccc3nc3ccccc23)cc1`, the ILSmax was 105%. In the case of `COc1cccc2c(Nc3ccc(NS(C)(=O)=O)cc3)c3ccc(N)cc3nc12`, the ILSmax is reported as 100%. With `CCCCCCS(=O)(=O)Nc1ccc(Nc2c3ccccc3nc3ccccc23)c(OC)c1` the ILSmax was 66%. In the case of `CCS(=O)(=O)Nc1ccc(Nc2c3ccccc3nc3cc(C)ccc23)cc1`, the ILSmax is reported as 84%. `CNc1ccc2c(Nc3ccc(OCCCC(=O)O)cc3)c3ccccc3nc2c1` was tested, and the ILSmax was 25%. `Nc1ccc(C(=O)Nc2ccc(N=c3c4ccccc4[nH]c4ccc(N)cc34)cc2)cc1` showed an ILSmax of 76%. With `COc1ccc(Nc2c3ccccc3nc3cc([N+](=O)[O-])ccc23)cc1` the ILSmax was 30%. `CCS(=O)(=O)Nc1ccc(Nc2c3ccccc3nc3cc(NC(C)=O)ccc23)cc1` gave an ILSmax of 115%. Work on `NCCc1ccc(NC(=O)Nc2ccc(N=c3c4ccccc4[nH]c4ccccc34)cc2)cc1` yielded an ILSmax of 170%. Compound `COc1ccc2nc3cc([N+](=O)[O-])ccc3c(Nc3ccc(NS(C)(=O)=O)cc3)c2c1` has an ILSmax of 55%. Work on `COc1cc(NS(C)(=O)=O)ccc1N=c1c2ccccc2[nH]c2c(CN(C)C)cccc12` yielded an ILSmax of 72%. `Cc1ccc2c(Nc3ccc(NS(C)(=O)=O)cc3)c3ccc([N+](=O)[O-])cc3nc2c1` showed an ILSmax of 170%. In the case of `Nc1ccc2c(Nc3ccc(C(=O)O)cc3)c3ccccc3nc2c1`, the ILSmax is reported as 25%. Compound `CCN(CC)/N=N/c1ccc2c(Nc3ccc(NS(C)(=O)=O)cc3)c3ccccc3nc2c1` has an ILSmax of 95%. With `COc1cc(NS(C)(=O)=O)ccc1Nc1c2cccc(C)c2nc2c(C)c([N+](=O)[O-])ccc12` the ILSmax was 56%. `NCCCCCCc1ccc(N=c2c3ccccc3[nH]c3cc([N+](=O)[O-])ccc23)cc1` was tested, and the ILSmax was 25%. Work on `COc1cc(NS(C)(=O)=O)ccc1Nc1c2ccc(I)cc2nc2c(OC)cccc12` yielded an ILSmax of 100%. For `COc1ccc2nc3cc(Cl)ccc3c(Nc3ccc(NS(C)(=O)=O)cc3OC)c2c1`, the ILSmax was 25%. Compound `NC(=O)CCCCCc1ccc(Nc2c3ccccc3nc3ccccc23)cc1` has an ILSmax of 97%. With `O=C(O)c1ccc(Nc2c3ccccc3nc3c(OCC(O)CO)cccc23)cc1` (stereo unspecified) the ILSmax was 170%. In the case of `CS(=O)(=O)Nc1ccc(Nc2c3ccccc3nc3cccc([N+](=O)[O-])c23)cc1`, the ILSmax is reported as 25%. Compound `COc1cc(NS(C)(=O)=O)ccc1Nc1c2ccccc2nc2cc(C(F)(F)F)c(N)cc12` has an ILSmax of 90%. Work on `CNS(=O)(=O)c1ccc(N=c2c3ccccc3[nH]c3cc(N)ccc23)cc1` yielded an ILSmax of 55%. `NC(=O)CCCCCCCCc1ccc(Nc2c3ccccc3nc3ccccc23)cc1` gave an ILSmax of 26%. In the case of `CC(Oc1ccc(Nc2c3ccccc3nc3ccccc23)cc1)C(=O)O` (stereo unspecified), the ILSmax is reported as 25%. For `O=C(O)CCc1cccc(Nc2c3ccccc3nc3ccccc23)c1`, the ILSmax was 25%. `CS(=O)(=O)Nc1ccc(Nc2c3cc(N)ccc3nc3ccc(N)cc23)cc1` gave an ILSmax of 35%. `CN1CCN(c2ccc(Nc3c4ccccc4nc4cc([N+](=O)[O-])ccc34)cc2)CC1` was tested, and the ILSmax was 25%. With `CS(=O)(=O)Nc1ccc(Nc2c3ccccc3nc3cc(NC(=O)/C=C/c4ccccc4)ccc23)cc1` the ILSmax was 25%. Work on `Nc1ccc2c(Nc3ccc([N+](=O)[O-])cc3)c3ccccc3nc2c1` yielded an ILSmax of 25%. Work on `CCS(=O)(=O)Nc1ccc(Nc2c3ccccc3nc3c(C)cccc23)cc1` yielded an ILSmax of 65%. In the case of `O=C(O)CCc1ccc(Nc2c3ccccc3nc3ccccc23)cc1`, the ILSmax is reported as 162%. `COc1cc(Nc2c3ccccc3nc3c([N+](=O)[O-])cccc23)ccc1NS(C)(=O)=O` showed an ILSmax of 25%. `OC[C@@H]1O[C@H](Oc2ccc(Nc3c4ccccc4nc4ccccc34)cc2)[C@@H](O)[C@H](O)[C@H]1O` was tested, and the ILSmax was 60%. `CC(=O)Nc1ccc(Nc2c3ccccc3nc3ccccc23)cc1` showed an ILSmax of 60%. With `Cc1ccc2nc3ccccc3c(Nc3ccc(NS(C)(=O)=O)cc3)c2c1` the ILSmax was 25%. For `COc1cc(NS(C)(=O)=O)ccc1Nc1c2ccccc2nc2cc(N)ccc12`, the ILSmax was 102%. `COc1ccccc1Nc1c2ccccc2nc2ccccc12` gave an ILSmax of 25%. Compound `COc1cc(NS(C)(=O)=O)ccc1Nc1c2ccccc2nc2c(C(=O)NCC(O)CO)cccc12` (stereo unspecified) has an ILSmax of 83%. `CS(=O)(=O)Nc1ccc(Nc2c3ccccc3nc3ccccc23)c(Cl)c1` gave an ILSmax of 25%. `CCCCOc1cccc2c(Nc3ccc(NS(=O)(=O)CCC)cc3OC)c3ccccc3nc12` was tested, and the ILSmax was 80%. Work on `COc1cc(NS(C)(=O)=O)ccc1Nc1c2ccc(Cl)cc2nc2c(C)cccc12` yielded an ILSmax of 75%. `CS(=O)(=O)Nc1ccc(Nc2c3ccccc3nc3cc(O)ccc23)cc1` gave an ILSmax of 72%. `NCc1ccc(Nc2c3ccccc3nc3cc([N+](=O)[O-])ccc23)cc1` gave an ILSmax of 25%. `O=C(O)CCCCc1ccc(NC(=O)Nc2ccc(N=c3c4ccccc4[nH]c4ccccc34)cc2)cc1` gave an ILSmax of 80%. `NCCCCc1ccc(NC(=O)Nc2ccc(N=c3c4ccccc4[nH]c4ccccc34)cc2)cc1` showed an ILSmax of 170%. In the case of `COc1cc(NS(C)(=O)=O)ccc1Nc1c2ccccc2nc2c(C)c(C)ccc12`, the ILSmax is reported as 118%. `Cc1ccc2c(Nc3ccc(NS(C)(=O)=O)cc3)c3cccc(C)c3nc2c1` was tested, and the ILSmax was 70%. `CCCCCCS(=O)(=O)Nc1ccc(Nc2c3ccccc3nc3c(C(N)=O)cccc23)c(OC)c1` showed an ILSmax of 87%. For `COc1ccc2c(Nc3ccc(NS(C)(=O)=O)cc3)c3ccc(OC)cc3nc2c1`, the ILSmax was 56%. Work on `CCC(CC)C(=O)Nc1ccc(Nc2c3ccccc3nc3ccccc23)cc1` yielded an ILSmax of 90%. For `COc1cc(NS(=O)(=O)CCCCN)ccc1Nc1c2ccccc2nc2c(C(N)=O)cccc12`, the ILSmax was 25%. `COc1cc(NS(C)(=O)=O)ccc1Nc1c2ccccc2nc2cc(C#N)ccc12` was tested, and the ILSmax was 93%. With `O=C(O)Cc1ccccc1Nc1c2ccccc2nc2ccccc12` the ILSmax was 25%. `CCS(=O)(=O)Nc1ccc(Nc2c3cccc(C)c3nc3c(C)cccc23)c(OC)c1` gave an ILSmax of 70%. In the case of `CCCOc1cccc2c(Nc3ccc(NS(C)(=O)=O)cc3)c3ccccc3nc12`, the ILSmax is reported as 100%. In the case of `CCCCOc1cccc2c(Nc3ccc(NS(C)(=O)=O)cc3OC)c3ccccc3nc12`, the ILSmax is reported as 80%. Compound `COc1cc(Nc2c3ccccc3nc3ccccc23)ccc1N` has an ILSmax of 25%. In the case of `C(=C/c1ccc(Nc2c3ccccc3nc3ccccc23)cc1)/c1ccccc1`, the ILSmax is reported as 25%. `O=C(O)c1ccc(/C=C/c2ccc(Nc3c4ccccc4nc4ccccc34)cc2)cc1` was tested, and the ILSmax was 158%. `Cc1cccc2c(Nc3ccc(NS(=O)(=O)c4ccc(N)cc4)cc3)c3ccccc3nc12` was tested, and the ILSmax was 55%. Work on `COc1cc(NS(C)(=O)=O)ccc1Nc1c2ccccc2nc2c1ccc1ncccc12` yielded an ILSmax of 83%. In the case of `Nc1ccc2c(=Nc3ccc(S(N)(=O)=O)cc3)c3ccc(N)cc3[nH]c2c1`, the ILSmax is reported as 60%. For `COc1ccc2[nH]c3ccccc3c(=Nc3ccc(NS(C)(=O)=O)cc3OC)c2c1`, the ILSmax was 35%. Compound `CS(=O)(=O)Nc1ccc(Nc2c3ccccc3nc3c(C(N)=O)cccc23)cc1` has an ILSmax of 50%. `NCCCCCCS(=O)(=O)Nc1ccc(Nc2c3ccccc3nc3ccccc23)cc1` was tested, and the ILSmax was 25%. `CC(=O)NCCS(=O)(=O)Nc1ccc(Nc2c3ccc(I)cc3nc3ccc(N)cc23)cc1` showed an ILSmax of 105%. For `CCOc1cc(NS(C)(=O)=O)ccc1Nc1c2ccccc2nc2ccccc12`, the ILSmax was 75%. `N=C(N)NCCCS(=O)(=O)Nc1ccc(Nc2c3ccc(N)cc3nc3ccc(N)cc23)cc1` showed an ILSmax of 129%. `Cc1ccc2c(Nc3ccc(NS(C)(=O)=O)cc3)c3ccccc3nc2c1C` was tested, and the ILSmax was 55%. With `CCNc1ccc(Nc2c3ccccc3nc3ccccc23)cc1` the ILSmax was 52%. `Ic1ccccc1Nc1c2ccccc2nc2ccccc12` gave an ILSmax of 25%. With `O=S(=O)(Nc1ccc(Nc2c3ccccc3nc3ccccc23)cc1)c1ccccc1` the ILSmax was 75%. `COc1cccc(Nc2c3ccccc3nc3ccccc23)c1` was tested, and the ILSmax was 25%. Compound `CCCCNc1ccc(Nc2c3ccccc3nc3ccccc23)cc1` has an ILSmax of 25%. `c1ccc(Nc2c3ccccc3nc3ccccc23)cc1` gave an ILSmax of 25%. With `Fc1ccc(Nc2c3ccccc3nc3ccccc23)cc1` the ILSmax was 25%. With `Cc1ccc(Nc2c3ccccc3nc3ccccc23)cc1` the ILSmax was 90%. `CS(=O)(=O)Nc1ccc(Nc2c3ccccc3nc3ccccc23)cc1Cl` was tested, and the ILSmax was 25%. With `CS(=O)(=O)Nc1ccc(Nc2c3ccccc3nc3cc(N)ccc23)cc1` the ILSmax was 134%.
